Source: ChEMBL document CHEMBL4049411, “Rational Design, Synthesis, and Biological Evaluation of Heterocyclic Quinolones Targeting the Respiratory Chain of Mycobacterium tuberculosis” (J Med Chem, 2017)
≈ marks a conversion by molar mass, not a printed value.

What was measured:
[1] = (§1) Inhibition of replicating Mycobacterium tuberculosis H37Rv NDH assessed as cell growth inhibition after 7 days by MABA method; settings: 168 h
[2] = Metabolic stability in human liver microsomes assessed as half life for metabolic turnover at 0.1 to 10 uM preincubated for 60 mins in presence of NADPH measured up to 60 mins by mass spectroscopic analysis; type: ADME, microsome
[3] = Metabolic stability in mouse liver microsomes assessed as half life for metabolic turnover at 0.1 to 10 uM preincubated for 60 mins in presence of NADPH measured up to 60 mins by mass spectroscopic analysis; type: ADME, microsome
[4] = system: HepG2; assay: Cytotoxicity against human HepG2 cells after 24 hrs in presence of glucose by MTT assay; type: cell-based; settings: hepg2, 24 h
[5] = system: Mycobacterium tuberculosis H37Rv; assay: as §1
[6] = Metabolic stability in rat liver microsomes assessed as half life for metabolic turnover at 0.1 to 10 uM preincubated for 60 mins in presence of NADPH measured up to 60 mins by mass spectroscopic analysis; type: ADME, microsome
[7] = Intrinsic clearance in human microsomes; type: ADME, Microsome; settings: read-out: CLH
[8] = Lipophilicity, logD of compound at pH 7.4; settings: buffer
[9] = Aqueous solubility of compound; type: physicochemical; settings: buffer
[10] = Intrinsic clearance in rat hepatocytes assessed per million cells; type: ADME, cell-based, Hepatocyte; settings: read-out: CLH
[11] = Protein binding in human plasma at 1 uM after 18 hrs by equilibrium dialysis; type: ADME, cell-free; settings: read-out: PPB (converted)

In the case of `COc1ccc2c(=O)c(C)c(-c3ccc(N4CCN(c5ccccc5)CC4)cc3)[nH]c2c1`, the IC50 [1] is reported as over 10000 nM.
Compound `Cc1c(-c2ccc(N3CCN(Cc4ccccc4)CC3)cc2)[nH]c2ccc(F)cc2c1=O` has an IC50 [1] of over 10000 nM.
With `Cc1c(-c2ccc(N3CCC(Cc4ccccc4)CC3)cc2)[nH]c2ccccc2c1=O` the IC50 [1] was over 10000 nM.
`Cc1c(-c2ccc(-n3cccc3)cc2)[nH]c2cccc(F)c2c1=O` gave an IC50 [1] of 710 nM.
For `Cc1c(-c2cccc(N3CCCCC3)c2)[nH]c2cc(F)cc(F)c2c1=O`, the IC50 [1] was over 10000 nM.
For `O=c1cc(-c2ccc(N3CCCCC3)cc2)[nH]c2ccccc12`, the IC50 [1] was over 10000 nM.
With `Cc1c(-c2ccc(N3CCC[C@@H]3C(=O)NC3CCOCC3)cc2)[nH]c2cc(F)cc(F)c2c1=O` the IC50 [1] was over 10000 nM.
Compound `Cc1c(-c2ccc(N3CCC(C)CC3)cc2)[nH]c2cc(F)cc(F)c2c1=O` has a half-life at up to 10 µM [2] of under 10 min, a half-life at up to 10 µM [3] of under 10 min and an Activity [4] of over 100 µM. The IC90 [5] was 1930 nM, the IC50 [1] was 610 to 611 nM and the half-life at up to 10 µM [6] was under 10 min.
`Cc1c(-c2ccc(N3CCCC(C)C3)cc2)[nH]c2cc(F)cc(F)c2c1=O` (stereo unspecified) showed a half-life at up to 10 µM [2] of 7.9 min, a half-life at up to 10 µM [3] of 22.3 min and an Activity [4] of over 100 µM. For the same compound, the IC90 [5] was 630 nM, the IC50 [1] was 367 to 370 nM and the half-life at up to 10 µM [6] was 10.8 min.
`Cc1c(-c2ccc(N3CCCC(F)(F)C3)cc2)[nH]c2cc(F)cc(F)c2c1=O` showed a half-life at up to 10 µM [2] of 17.4 min, a half-life at up to 10 µM [3] of 16.2 min and an IC90 [5] of 830 nM. The IC50 [1] was 360 to 361 nM and the half-life at up to 10 µM [6] was 13.7 min.
`COc1ccc2c(=O)cc(-c3ccc(N4CCCCC4)cc3)[nH]c2c1` showed an IC50 [1] of over 10000 nM.
With `Cc1c(-c2ccc(N3CCC[C@@H]3C(=O)N3CCOCC3)cc2)[nH]c2cc(F)cc(F)c2c1=O` the IC50 [1] was over 10000 nM.
Work on `Cc1c(-c2ccc(N3CCC[C@H]3COCc3ccccc3)cc2)[nH]c2cc(F)cc(F)c2c1=O` yielded an IC50 [1] of 960 nM.
For `COc1ccc2c(=O)c(Cl)c(-c3ccc(N4CCCCC4)cc3)[nH]c2c1`, the microsomal CLint [7] was over 300 µL/min/mg, the logD [8] was 3.6 and the IC50 [1] was 2820 nM. The solubility [9] was 0.5 µM (≈ 0.184 µg/mL), the hepatocyte CLint [10] was 48.9 µL/min/1e6 cells and the fraction unbound at 18 h, 1 µM [11] was 0.012.
Work on `Cc1c(-c2ccc(N3CC[C@@H](F)C3)cc2)[nH]c2cc(F)cc(F)c2c1=O` yielded a half-life at up to 10 µM [2] of 10.2 min, a half-life at up to 10 µM [3] of 4.4 min and a microsomal CLint [7] of 175 µL/min/mg. For the same compound, the logD [8] was 3.8, the Activity [4] was 150.6 µM and the IC90 [5] was 500 nM. For the same compound, the IC50 [1] was 230 to 231 nM, the half-life at up to 10 µM [6] was 10.6 min and the solubility [9] was 0.9 µM (≈ 0.323 µg/mL). It also gave a hepatocyte CLint [10] of 118 µL/min/1e6 cells and a fraction unbound at 18 h, 1 µM [11] of 0.009.
Compound `Cc1c(-c2ccc(-n3cccc3)c(Cl)c2)[nH]c2cc(F)cc(F)c2c1=O` has an IC50 [1] of over 10000 nM.
With `Cc1c(-c2ccc(N3CC(F)(F)C3)cc2)[nH]c2cc(F)cc(F)c2c1=O` the IC50 [1] was 1530 nM.
In the case of `Cc1c(-c2ccc(-n3cccc3)cc2F)[nH]c2cc(F)cc(F)c2c1=O`, the IC50 [1] is reported as over 10000 nM.
Compound `COc1ccc2c(=O)c(Cl)c(-c3ccc(N4CCC(F)CC4)cc3)[nH]c2c1` has an IC50 [1] of over 10000 nM.
With `COc1ccc2c(=O)c(C)c(-c3ccc(-n4cc(F)c(F)c4)cc3)[nH]c2c1` the IC50 [1] was over 10000 nM.
With `Cc1c(-c2ccc(-n3cccc3C#N)cc2)[nH]c2cc(F)cc(F)c2c1=O` the IC50 [1] was over 10000 nM.
Work on `Cc1c(-c2ccc(N3CCC(Cc4ccccc4)CC3)cc2)[nH]c2ccc(F)cc2c1=O` yielded an IC50 [1] of over 10000 nM.
In the case of `COc1ccc2c(=O)c(C)c(-c3ccc(N4CCN(Cc5ccccc5)CC4)cc3)[nH]c2c1`, the IC50 [1] is reported as over 10000 nM.
In the case of `Cc1c(-c2ccc(N3CC[C@@H]3C(=O)NC(C)(C)C)cc2)[nH]c2cc(F)cc(F)c2c1=O`, the IC50 [1] is reported as over 10000 nM.
In the case of `Cc1c(-c2ccc(N3CCCC(C)(O)C3)cc2)[nH]c2cc(F)cc(F)c2c1=O` (stereo unspecified), the IC50 [1] is reported as 5010 nM.
For `Cc1c(-c2ccc(N3CCC[C@@H]3CO)cc2)[nH]c2cc(F)cc(F)c2c1=O`, the microsomal CLint [7] was over 300 µL/min/mg, the logD [8] was over 3.4 and the IC50 [1] was 320 nM. For the same compound, the solubility [9] was 4 µM (≈ 1.48 µg/mL), the hepatocyte CLint [10] was 36.5 µL/min/1e6 cells and the fraction unbound at 18 h, 1 µM [11] was 0.045.
Compound `Cc1c(-c2ccc(N3CCC(F)CC3)cc2)[nH]c2cc(F)cc(F)c2c1=O` has a half-life at up to 10 µM [2] of 5.7 min, a half-life at up to 10 µM [3] of 4.4 min and an Activity [4] of 102.2 µM. It also gave an IC90 [5] of 1830 nM, an IC50 [1] of 940 to 950 nM and a half-life at up to 10 µM [6] of 8.4 min.
With `Cc1c(-c2ccc(N3CCCCC3)cc2)[nH]c2cc(F)cc(F)c2c1=O` the half-life at up to 10 µM [2] was 7.31 min, the half-life at up to 10 µM [3] was 8.27 min and the Activity [4] was over 100 µM. For the same compound, the IC90 [5] was 780 nM, the IC50 [1] was 270 nM and the half-life at up to 10 µM [6] was 8.3 min.
`Cc1c(-c2ccc(-n3cccn3)cc2)[nH]c2cc(F)cc(F)c2c1=O` gave an IC50 [1] of over 10000 nM.
`Cc1c(-c2ccc(N3CCC(C(F)(F)F)CC3)cc2)[nH]c2cc(F)cc(F)c2c1=O` gave an IC50 [1] of over 10000 nM.
`COc1cc2[nH]c(-c3ccc(N4CCCCC4)cc3)c(C)c(=O)c2cc1OC` showed an IC50 [1] of over 10000 nM.
For `Cc1c(-c2ccc(N3CCC[C@@H](C)C3)cc2)[nH]c2cc(F)cc(F)c2c1=O`, the microsomal CLint [7] was over 300 µL/min/mg, the logD [8] was 4.7 and the IC50 [1] was 470 nM. For the same compound, the solubility [9] was under 0.5 µM, the hepatocyte CLint [10] was 183 µL/min/1e6 cells and the fraction unbound at 18 h, 1 µM [11] was 0.005.
